{"source": "patent EP4520331A1", "about": "“PHARMACEUTICAL COMPOSITION COMPRISING TRPV4 INHIBITOR FOR USE IN THE PREVENTION OR TREATMENT OF CEREBRAL CAVERNOUS MALFORMATIONS (CCM)” (Université Grenoble Alpes, priority 2023, dated 2025)", "format_in_all_cases": "cell-based, Human", "key": {"[1]": {"test_system": "CCM2-depleted endothelial cells", "assay": "Ki67 immunofluorescence staining (proliferative marker)", "conditions": "400nM added to siCCM2 ECs; Figure 1E", "procedure": "(§1) Pooled Human Umbilical Vein Endothelial Cells (HUVEC) were obtained from Pelobiotech. Upon reception, HUVEC at P0 were expanded over 2 passages in 100µg/ml collagen 1 (from rat tail, BD) coated flasks in complete EGM-2 medium (Lonza) supplemented with 100 U/ml penicillin and 100 µg/ml streptomycin at 37°C in a 5% CO2 - 3% O2 humidified chamber. HUVEC at passage 3 were transfected twice at 24 h-intervals with 30 nM siRNA and Lipofectamine RNAi max (Life Technologies, ref. 13778-150) according to the manufacturer's instructions in OptiMEM at 37°C in a regular 5% CO2 in a humidified chamber. For double transfections, 30 nM of each siRNA duplexes (Dharmacon smartpool ON-TARGET plus Thermo Scientific) was used: Non-targeting siRNA #1 (ref. D-001810-01), CCM2 siRNA (ref. L-014728-01) and TRPV4 siRNA (ref. L-004195-00).\nTransfected HUVEC were seeded at 3x10^4 cells (sparsed, for Ki67 staining) or […] (confluent, for VE-cadherin staining) in 24-well plates on coverslips coated with 10 µg/ml fibronectin (from human plasma, Sigma Aldrich) and incubated overnight (Ki67 experiment) or for 48h (VE-cadherin experiment) in complete EBM-2 medium in presence or absence of the calcium channels inhibitors dissolved in DMSO. […] The percentage of Ki67 positive cells was counted manually out of more than 130 cells total."}, "[2]": {"test_system": "CCM2-depleted endothelial cells", "assay": "xCELLigence proliferation assay (RTCA impedance)", "conditions": "400nM added to siCCM2 ECs; RTCA xCelligence impedance over 24h; Figure 1B", "procedure": "as §1\nProliferation assay was performed using the xCELLigence Real-Time Cell Analysis (RTCA) DP instrument in combination with E-plate 16 (ACEA Biosciences) coated with 100µL of 100µg/mL collagen 1 (from rat tail) for 30 min at 37°C and washed 2 times with PBS 1X. 50 µL of complete EBM-2 medium was added and baseline without cells was made with RTCA software. 2.5x103 transfected HUVEC (4 wells per condition) were seeded 24h after the second round of transfection in 50µL of complete EBM-2-medium. […] Impedance measurements were recorded every 5 min during 24h. […]"}, "[3]": {"test_system": "CCM2-depleted endothelial cells", "assay": "Gelatin degradation assay (ECM degradation)", "conditions": "800 nM; siCCM2 HUVEC; Figure 3B", "procedure": "as §1, with “For double transfections, 30 nM of each siRNA duplexes (Dharmacon smartpool ON-TARGET plus Thermo Scientific) was used: Non-targeting siRNA #1 (ref. D-001810-01), CCM2 siRNA (ref. L-014728-01) and TRPV4 siRNA (ref. L-004195-00).” left out\nCoverslips in 24 well-plates were coated with gelatin-Alexa488 dye as previously described (70). siCT and siCCM2 HUVEC were seeded 24h after the second siRNA transfection at 3x10^4/well in OptiMEM medium in presence or absence of the calcium channels inhibitors overnight at 37°C in a 5% CO2 incubator. […] For a quantitative analysis of the degradative skill of siRNA transfected cells, 10 images per condition were randomly acquired and were converted to binary images using B&W thresholding on Imaged. The total area of the black zones corresponding to the total area of degradation of the fluorescent gelatin was measured."}}}
{"smiles": "O=C(NC1(c2ccccc2)CC1)c1c(CN2CCC(N3CCCCC3)CC2)c(-c2cccc(C(F)(F)F)c2)nc2cc(Br)ccc12", "note": "[GSK2193874, 3-([1,4'-Bipiperidin]-1'-ylmethyl)-7-bromo-N-(1-phenylcyclopropyl)-2-[3-(trifluoromethyl)phenyl]-4-quinolinecarboxamide]", "values": [{"measurement": "proliferative marker Ki67", "setting": "[1]", "value": "restoration"}, {"measurement": "proliferation rate", "setting": "[2]", "value": "restoration"}, {"measurement": "CCM2-depleted ECs capacity to degrade the ECM such as gelatin", "setting": "[3]", "value": "inhibits"}]}
